Assay [1] deals with T1, CaM (Bos taurus, UniProt P62157).
T1 construct: made in house; host or cells: E. coli BL21 (DE3)
Kind of assay: Competition pull-down with native ligand TRPV1-Ct15. It is filed as binding, bovine. The note with it: H14 library; competitor peptide 200 µM; read-out: Surface mapping KD (apparent), competition.

For another assay, the target named is T2, RecQ-WH (Escherichia coli, UniProt P15043).
T2 construct: coding for residues 408– 523 of E. coli RecQ; made in house; host or cells: E. coli BL21(DE3)
T2 sequence (P15043 408-523): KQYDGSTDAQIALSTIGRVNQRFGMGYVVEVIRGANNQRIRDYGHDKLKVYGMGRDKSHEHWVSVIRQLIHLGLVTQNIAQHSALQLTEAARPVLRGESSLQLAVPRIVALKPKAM
In words: Pull-down assay with immobilized protein and LSM libraries. More on the design: species or system E. coli. The note with it: H14 library; 1:1 binding assumed; read-out: Surface mapping KD (apparent). How it is done: Pull-down assays with immobilized test proteins and foldameric LSM libraries were carried out. Proteins were equilibrated with LSM probes, and equilibrium bound fractions (FB) were determined from the unbound fractions measured by HPLC-MS methods. Hits were corrected with background binding of the resin. The protocol allowed all binding events to equilibrate irrespective of affinity, specificity, and binding kinetics. This was essential to judge overall druggability and promiscuity. Importantly, the concentration of protein and the total concentration of foldameric LSMs were equimolar, which minimized competition between the probes. This experimental setup approximated independent binding of individual library members. Results were visualized as heat maps of dissociation constants (Fig. 3).
Pull-down assay and data analysis
Pull-down assay. LSM sublibraries were screened separately as previously described.(2) Experiments were performed in the following buffers: (i) 20 mM pH 7.4 HEPES, 150 mM NaCl, 5 mM CaCl2 for CaM; (ii) 50 mM pH 7.4 HEPES, 150 mM NaCl, 1 mM TCEP, 1 mM CaCl2 for S100 proteins; (iii) 20 mM pH 7.4 HEPES, 150 mM NaCl, 1 mM TCEP for Gal-1 and (iv) 20 mM pH 7.4 HEPES, 150 mM NaCl for RecQ-WH. Assays were performed in paper filter spin cups (Thermo Scientific) with sample volumes of 100 µl. Hexahistidine-tagged proteins were immobilized on previously washed Co-NTA resin (TALON, Takara Bio USA, Inc., Mountain View, CA) in 64 µM final concentration. LSM sublibrary was added, in which each of the 64 library members were used at a concentration of 1 µM. Samples were incubated at room temperature for 30 min with shaking at 100 rpm. Then, samples were centrifuged at 1000 rpm for 2 min and washed with 100 µl pull-down buffer to remove unbound compounds.
The control experiments were performed using the same compounds and the resin but without the immobilized protein. In case of competitive assays, competitor peptides were added to LSM sublibrary samples in 200 µM final concentration. In the case of Gal-1, lactose (competitor) was used in a concentration of 10 mM. Experiments were performed at least twice. Mean […]
LC-MS methods and parameters. HPLC/ESI-MS analysis was used to characterize the samples from the pull-down assay. LC-MS analysis was performed with a Thermo Scientific Dionex UltiMate 3000 HPLC system interfaced to an LTQ ion trap mass spectrometer (Thermo Electron Corp., San Jose, CA, USA). Samples were injected onto an Aeris Widepore XB-C18 (250 x 4.6 mm) analytical HPLC column using gradient elution 5-80 % solution B during 25 minutes. For pull-down samples, eluent composition was 0.1% acetic acid in distilled water (Solution A) and 0.1% acetic acid in acetonitrile (solution B). Mass spectra were acquired in full scan mode from 200 to 2000 m/z range. For overlapping peaks, selective reaction monitoring (SRM) was […]
MS data analysis. Thermo Xcalibur 2.2 software was used for peak identification and integration. The majority of the foldameric fragments could be resolved independently via HPLC-MS/MS measurements based on molecular weight, MS fragmentation pattern and retention time. Peaks of some foldamers with β3-hIle or β3-hLeu in position R2 could not be resolved, these were integrated and averaged. In the processing method, each sample component was associated to a chromatographic peak based on previously identified mass (m/z) and retention time (ref (2) and Table S7-10). Using ICIS peak detection algorithm, the general detection and integration criteria were: smoothing points: 5, baseline window: 80, area noise factor: 5, peak noise factor: 10. Using these processing setups, all raw data files were reprocessed together and analyzed. Errors in peak identification during the automatic processing were corrected manually.
Calculation of the discussed parameters
1. Bound fractions (FB.) were calculated from the HPLC-MS intensity loss of the LSM probes compared to the control where no protein was immobilized to the resin: […]

For assay [2], the target named is T3, S100B (Homo sapiens, UniProt P04271).
T3 construct: made in house; host or cells: Escherichia coli BL21(DE3)
T3 sequence (P04271 1-92): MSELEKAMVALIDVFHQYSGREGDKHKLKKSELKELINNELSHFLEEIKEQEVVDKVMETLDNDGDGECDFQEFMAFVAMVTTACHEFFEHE
The assay is described as above. It is filed as binding. As to conditions: for Kd: H14 library, 1:1 binding assumed, read-out: Surface mapping KD (apparent); for Affinity class of probe (high, medium, low) in pull-down: H14 probes selected for validation. The essentials:
(§1)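 Buffers were HEPES pH 7.4 with 150 mM NaCl, plus 1 mM TCEP and 1 mM CaCl2 (50 mM HEPES) for S100A4 and S100B, 1 mM TCEP for Gal-1, and no additive for RecQ-WH. Immobilized protein at 64 µM was equilibrated 30 min with the LSM sublibrary, and unbound probes were measured by LC-MS.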

Assay [3] concerns the target T1, CaM. The description is as above. Type of assay: binding, bovine. As to conditions: H14 library; 1:2 stoichiometry assumed; read-out: Surface mapping KD (apparent). The essentials:
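CaM buffer was 20 mM HEPES pH 7.4, 150 mM NaCl, 5 mM CaCl2. LSM sublibrary members ([…]) incubated 30 min, RT, with equimolar His-tagged protein on Co-NTA resin. HPLC-MS measured unbound probes; bound fraction relative to resin-only background gave dissociation constants.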

For the next assay, the target named is T4, S100A4 (Homo sapiens, UniProt P26447).
T4 construct: made in house; host or cells: Escherichia coli BL21(DE3)
T4 sequence (P26447 whole entry): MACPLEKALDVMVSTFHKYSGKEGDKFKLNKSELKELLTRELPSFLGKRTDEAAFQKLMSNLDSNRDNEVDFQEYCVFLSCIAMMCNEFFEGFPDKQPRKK
The assay is described as above. It is filed as binding. The note with it: for Kd: H14 library, 1:1 binding assumed, read-out: Surface mapping KD (apparent); for Affinity class of probe (high, medium, low) in pull-down: H14 probes selected for validation. Summed up: as §1

In assay [4] the target is T3, S100B. In words: Competition pull-down with native ligand RSK1 (689–735). Type of assay: binding. As to conditions: H14 library; competitor peptide 200 µM; read-out: Surface mapping KD (apparent), competition.
Assay [5] addresses T5, Gal-1 (Homo sapiens, UniProt P09382).
T5 construct: made in house; host or cells: E. coli BL21(DE3)
Kind of assay: Pull-down assay with immobilized protein and LSM libraries. It is filed as binding. The note with it: H14 library; 1:1 binding assumed; read-out: Surface mapping KD (apparent). The essentials:
as §1

The target of assay [6] is T5, Gal-1. In words: Competition pull-down with lactose. It is filed as binding. The note with it: H14 library; lactose 10 mM; read-out: Surface mapping KD (apparent), competition. The essentials: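 His6-tagged proteins immobilized on Co-NTA resin at 64 µM final with 64-member LSM foldamer sublibraries (1 M each, as printed) in pH 7.4 HEPES/NaCl buffers (Ca2+/TCEP per target), 30 min RT; competitor peptides 200 µM final, lactose 10 mM for Gal-1. Bound fractions from LC-MS loss vs protein-free resin; KD assuming 1:1 binding.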

Molecules are shown by their SMILES.

T5 sequence (P09382 whole entry): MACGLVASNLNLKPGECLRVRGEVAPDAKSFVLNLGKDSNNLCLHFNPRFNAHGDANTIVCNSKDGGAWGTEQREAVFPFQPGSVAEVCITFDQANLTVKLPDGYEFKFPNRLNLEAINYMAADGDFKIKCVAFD

Consider `NC(=O)[C@H]1CCCC[C@@H]1NC(=O)C[C@H](Cc1c[nH]c2ccccc12)NC(=O)[C@H]1CCCC[C@@H]1NC(=O)[C@H]1CCCC[C@@H]1NC(=O)C[C@H](CC(=O)O)NC(=O)[C@H]1CCCC[C@@H]1N` [H14 DW], for which the Kd was 439 µM at CaM [1], 165 µM on RecQ-WH and 200 µM on S100B [2].

As to `NC(=O)[C@H]1CCCC[C@@H]1NC(=O)C[C@H](CO)NC(=O)[C@H]1CCCC[C@@H]1NC(=O)[C@H]1CCCC[C@@H]1NC(=O)C[C@H](Cc1ccccc1)NC(=O)[C@H]1CCCC[C@@H]1N` [H14 FS], the Kd on CaM [3] came out at 15 µM; at RecQ-WH, 303 µM; at S100B [2], 364 µM; at S100A4 it was 111 µM; on S100B [4] it was 429 µM.

For `C[C@@H](O)[C@@H](CC(=O)N[C@H]1CCCC[C@@H]1C(N)=O)NC(=O)[C@H]1CCCC[C@@H]1NC(=O)[C@H]1CCCC[C@@H]1NC(=O)C[C@H](Cc1ccccc1)NC(=O)[C@H]1CCCC[C@@H]1N` [H14 FT], the Kd on CaM [3] is 11 µM; at RecQ-WH, 218 µM; at Gal-1 [5], 348 µM; at S100B [2] it was 274 µM; on S100A4, 135 µM; at S100B [4], 333 µM.

Consider `CC[C@H](C)[C@@H](CC(=O)N[C@H]1CCCC[C@@H]1C(=O)N[C@H]1CCCC[C@@H]1C(=O)N[C@H](CC(=O)N[C@H]1CCCC[C@@H]1C(N)=O)Cc1ccc(O)cc1)NC(=O)[C@H]1CCCC[C@@H]1N` [H14 IY], for which the Kd on CaM [3] worked out at 15 µM; at RecQ-WH, 300 µM; on Gal-1 [5] it was 258 µM; at S100B [2], 74 µM; at S100A4, 20 µM; at S100B [4], 156 µM.

`N=C(N)NCCC[C@@H](CC(=O)N[C@H]1CCCC[C@@H]1C(N)=O)NC(=O)[C@H]1CCCC[C@@H]1NC(=O)[C@H]1CCCC[C@@H]1NC(=O)C[C@H](CCCCN)NC(=O)[C@H]1CCCC[C@@H]1N` [H14 KR]: the Kd came out at 249 µM at CaM [1]; 323 µM at Gal-1 [6]; 22 µM on CaM [3]; 486 µM at RecQ-WH; 22 µM at S100B [2].

For `CC(C)[C@@H](CC(=O)N[C@H]1CCCC[C@@H]1C(N)=O)NC(=O)[C@H]1CCCC[C@@H]1NC(=O)[C@H]1CCCC[C@@H]1NC(=O)C[C@H](CCCCN)NC(=O)[C@H]1CCCC[C@@H]1N` [H14 KV], the Kd at CaM [1] was found to be 376 µM; on CaM [3], 50 µM; at RecQ-WH, 442 µM; at S100B [2], 102 µM; on S100A4, 71 µM.

For `C[C@@H](CC(=O)N[C@H]1CCCC[C@@H]1C(N)=O)NC(=O)[C@H]1CCCC[C@@H]1NC(=O)[C@H]1CCCC[C@@H]1NC(=O)C[C@H](CCCNC(=N)N)NC(=O)[C@H]1CCCC[C@@H]1N` [H14 RA], the Kd on CaM [1] was found to be 449 µM; on CaM [3], 111 µM; on RecQ-WH it was 456 µM; on S100B [2], 188 µM.

Consider `N=C(N)NCCC[C@@H](CC(=O)N[C@H]1CCCC[C@@H]1C(=O)N[C@H]1CCCC[C@@H]1C(=O)N[C@H](CC(=O)N[C@H]1CCCC[C@@H]1C(N)=O)Cc1ccccc1)NC(=O)[C@H]1CCCC[C@@H]1N` [H14 RF], for which the Kd at CaM [1] worked out at 350 µM; at CaM [3], 4 µM; on RecQ-WH, 231 µM; at S100B [2], 16 µM; at S100A4 it was 65 µM. Also, the “Affinity class of probe (high, medium, low) in pull-down” value at S100B [2] is “high”; at S100A4 it was “medium”.

Take `N=C(N)NCCC[C@@H](CC(=O)N[C@H]1CCCC[C@@H]1C(=O)N[C@H]1CCCC[C@@H]1C(=O)N[C@@H](CCCCN)CC(=O)N[C@H]1CCCC[C@@H]1C(N)=O)NC(=O)[C@H]1CCCC[C@@H]1N` [H14 RK]: the Kd on CaM [1] was found to be 249 µM; on Gal-1 [6], 323 µM; on CaM [3], 22 µM; at RecQ-WH it was 486 µM; at S100B [2], 22 µM.

For the compound `N=C(N)NCCC[C@@H](CC(=O)N[C@H]1CCCC[C@@H]1C(N)=O)NC(=O)[C@H]1CCCC[C@@H]1NC(=O)[C@H]1CCCC[C@@H]1NC(=O)C[C@H](CCCNC(=N)N)NC(=O)[C@H]1CCCC[C@@H]1N` [H14 RR], the Kd on CaM [1] stood at 103 µM; on CaM [3], 10 µM; on RecQ-WH, 355 µM; on S100B [2], 18 µM. Further, the “Binding” value on S100B [2] (H14 probes) is recorded as “binds”; on S100A4 (H14 probes), “does not”. The “Affinity class of probe (high, medium, low) in pull-down” value at S100B [2] is recorded as “high”; at S100A4, “low”.

As for `NC(=O)CC[C@@H](CC(=O)N[C@H]1CCCC[C@@H]1C(N)=O)NC(=O)[C@H]1CCCC[C@@H]1NC(=O)[C@H]1CCCC[C@@H]1NC(=O)C[C@H](Cc1c[nH]c2ccccc12)NC(=O)[C@H]1CCCC[C@@H]1N` [H14 WQ], the Kd at CaM [1] was found to be 495 µM; at CaM [3], 16 µM; on RecQ-WH, 473 µM; at S100B [2] it was 161 µM; on S100A4, 191 µM.

On to `N=C(N)NCCC[C@@H](CC(=O)N[C@H]1CCCC[C@@H]1C(N)=O)NC(=O)[C@H]1CCCC[C@@H]1NC(=O)[C@H]1CCCC[C@@H]1NC(=O)C[C@H](Cc1ccc(O)cc1)NC(=O)[C@H]1CCCC[C@@H]1N` [H14 YR], for which the Kd on CaM [1] worked out at 117 µM; at Gal-1 [6] it was 309 µM; at CaM [3] it was 11 µM; at RecQ-WH it was 421 µM; at Gal-1 [5], 377 µM; on S100B [2] it was 67 µM. The Kd on S100A4 turned out to be 117 µM.

Values taken from PMC8162404, “Proteomimetic surface fragments distinguish targets by function” (Chemical Science, 2020).
